According to US20100221241A1, “C[…] ENVELOPE-BASED IMMUNOGEN THAT SIMU[…] RECEPTOR AND […] SITES” (UNIVERSITY OF MARYLAND BIOTECHNOLOGY INSTITUTE, priority 2005, published 2010):
No end group written: not given here.

Assays:
[1] = system: trimers (soluble gp120 trimer); assay: Surface Plasmon Resonance binding to trimers; set-up: species or system HIV; settings: compared with monomeric CD4M9
Excerpt: Recently, the X-ray crystal structure of free gp120 was solved (1) and along with X-ray tomography images of envelope spikes (3), used to build a computational model of the envelope trimer (1). […] The line between the binding sites is a “ruler” divided into 1 nm units, which was used to estimate distances between binding sites.

HIV = settings: compared with monomeric CD4M9; used with surface HIV virion; cited from earlier work

bi-CD4M9-MS: bivalent polypeptide containing two CD4M9 moieties separated by polyethylene glycol linker placing the binding residues 5.2 nm apart (CNLATCQLTCKSLGLLGKCAGSFCACGP; cysteine pairing not given here; also: bivalent: two CD4M9 moieties joined by a polyethylene glycol linker)
forward rate constant for binding [1]: significantly different from monomeric CD4M9 | HIV inhibition (HIV): more potent HIV inhibition than monomeric CD4M9
